Results on 14 compounds are retold here after patent US12247033B2, “Triazole-substituted imidazo[1,2-a]pyrimidines as cGAS inhibitors” (GlaxoSmithKline Intellectual Property Development Limited, priority 2022, dated 2025).

In one data set the target is human CGAS (157-522) (Homo sapiens, UniProt Q8N884). As to the kind of experiment: biochemical.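 Also: biochemical enzyme reaction, 2′3′-cGAMP product measured by RapidFire mass spectrometry (MRM) normalised to c-di-UMP internal standard, inhibition of product formation relative to high and low control wells.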
Sequence of human CGAS (157-522) (Q8N884 157-522): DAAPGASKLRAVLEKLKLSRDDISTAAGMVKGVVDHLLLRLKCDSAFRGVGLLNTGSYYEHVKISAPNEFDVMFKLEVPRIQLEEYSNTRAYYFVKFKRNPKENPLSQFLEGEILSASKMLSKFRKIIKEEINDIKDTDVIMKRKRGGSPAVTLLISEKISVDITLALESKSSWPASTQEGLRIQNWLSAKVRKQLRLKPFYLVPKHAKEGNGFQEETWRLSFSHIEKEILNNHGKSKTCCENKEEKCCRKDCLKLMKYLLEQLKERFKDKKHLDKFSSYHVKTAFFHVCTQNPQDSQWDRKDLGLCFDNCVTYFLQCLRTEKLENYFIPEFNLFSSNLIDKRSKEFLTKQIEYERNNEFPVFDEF
Data set [1] in a line: FaSSIF solubility (Fasted State Simulated Intestinal Fluid). Type of data set: physicochemical. The following applies: thermodynamic from solid, FaSSIF pH 6.5, 4 h equilibration at room temperature, dynamic range 1-1000 μg/mL. The protocol: 1 mL of FaSSIF buffer (3 mM sodium taurocholate, 0.75 mM lecithin in sodium phosphate buffer at pH 6.5) was added to manually weighed 1 mg of the solid compound in a 4 mL vial. […] The residual solid was removed by filtration. The supernatant solution was quantified by HPLC-UV using single point calibration of a known concentration of the compound in DMSO. The dynamic range of the assay was 1-1000 μg/mL.

For the next data set, the system named is CGAS. As to the kind of experiment: CGAS whole blood cytokine release assay (384-well, BacMam stimulation, IP-10 by cytometric bead array). The note with it: Homo sapiens, 6 h; read-out: hWB pXC50 (converted). Type of data set: cell-based. The method, boiled down: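 Heparinised human donor whole blood mixed with serially diluted compound plus Null BacMam stimulus, incubated 6 h at 37° C, 5% CO2. Supernatant IP-10 quantified by cytometric bead array on flow cytometer (488 nm excitation, 585/40 nm emission); inhibition of IP-10 calculated.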

In a further data set the test system is cGAS pathway. Nature of the data set: Whole blood (hWB) cytokine release assay (96-well, Bacmam stimulation, plasma IP-10 by Meso-Scale Discovery plates). Type of data set: cell-based. The note with it: 6 h, Table 4, human whole blood from individual healthy donors; for IC50: Homo sapiens, read-out: hWB pXC50 (converted). The protocol: The whole blood (hWB) cytokine release assay was performed as follows.
Human whole blood was collected from individual healthy donors into a 60 ml syringe containing sodium heparin (5 ml sodium heparin per syringe; Cat #309653, Becton-Dickinson, NJ, US). In a biosafety cabinet, 140 ul of the collected blood was transferred to each well of a 96-well flat bottom plate (Cat #167008, VWR, PA, US). The DMSO stock solution of small molecule cGAS inhibitor (10 mM stock solution) was diluted in PBS to prepare 10× solutions (3-fold dilutions) and 20 ul of the prepared 10× solutions was added to appropriate wells. Plates were shaken for 5 minutes at room temperature then incubated at 37° C. for 30 minutes. The stock solution of purified Bacmam was diluted with PBS+0.1% BSA to prepare a 4% (v/v) solution (10×). To activate the cGAS pathway, 20 uL of Bacmam was added to the blood, and the plates were shaken for 10 minutes at room temperature. PBS was added to achieve a final volume of 200 ul. Plates were then incubated at 37° C. for 6 hours.
Plates were removed from incubator and 100 uL/well PBS added. Plates were gently shaken for 10 minutes at room temperature and centrifuged (3000 rpm, 10 minutes) at room temperature. The plasma layer was removed and transferred to a separate 96-well plate and maintained at −80° C.
Plasma samples were measured for IP-10 levels using the IP-10 detection (U-plex or V-plex) plates (Cat #K151-UFK-4; Cat #K151-NVD-4; Meso-Scale Discovery, Inc.).

SMILES strings stand for the structures. Values after ≈ are worked out from the molar mass of the structure shown. Values joined by “and” are separate entries in the source; they are usually repeats but may differ in a detail not shown here. Identical values can stand only once. Counter-ions that a name gives are not always drawn. A value given as a limit tells only on which side of the number the result lay.

The term solubility denotes how much of the substance goes into solution per volume. As to `O=P(O)(O)OCn1nc(C(F)(F)F)nc1-c1nc2ncc(F)cn2c1-c1cnc[nH]1` [Example 34, ({5-[6-fluoro-3-(1H-imidazol-5-yl)imidazo[1,2-a]pyrimidin-2-yl]-3-(trifluoromethyl)-1H-1,2,4-triazol-1-yl}methoxy)phosphonic acid], the IC50 against human CGAS (157-522) was 794 nM. The solubility at 4 h in data set [1] was more than 1000 µg/mL.
Take `O=C(O)CCC(=O)OCn1cnc(-c2c(-c3nc(C(F)(F)F)n[nH]3)nc3ncccn23)c1` [Example 23, 4-oxo-4-[(4-{2-[3-(trifluoromethyl)-1H-1,2,4-triazol-5-yl]imidazo[1,2-a]pyrimidin-3-yl}-1H-imidazol-1-yl)methoxy]butanoic acid]: the IC50 is 251 nM at human CGAS (157-522) and 794 nM in the data set on CGAS. This compound had a solubility at 4 h in data set [1] of 455 µg/mL (≈ 1010 µM).
The matching figures for `CNCCOC(=O)OCn1nc(C(F)(F)F)nc1-c1nc2ncccn2c1-c1cnc[nH]1` [Example 28, {5-[3-(1H-imidazol-5-yl)imidazo[1,2-a]pyrimidin-2-yl]-3-(trifluoromethyl)-1H-1,2,4-triazol-1-yl}methyl 2-(methylamino)ethyl carbonate, 2 trifluoroacetic acid salt]: 3.16 nM, 316 nM and 208 µg/mL.
`CC(C)[C@H](N)C(=O)OCn1cnc(-c2c(-c3nc(C(F)(F)F)nn3COC(=O)[C@@H](N)C(C)C)nc3ncccn23)c1` [Example 24, (4-{2-[1-({[(2S)-2-amino-3-methylbutanoyl]oxy}methyl)-3-(trifluoromethyl)-1H-1,2,4-triazol-5-yl]imidazo[1,2-a]pyrimidin-3-yl}-1H-imidazol-1-yl)methyl (2S)-2-amino-3-methylbutanoate, 2 trifluoroacetic acid salt] had an IC50 against human CGAS (157-522) of 63.1 nM. The compound also yielded a solubility at 4 h in data set [1] of 324 µg/mL.
For `CNCC(=O)OCc1cccnc1N(C)C(=O)OC(C)n1cncc1-c1c(-c2nc(C(F)(F)F)n[nH]2)nc2ncccn12` (stereo not shown) [Example 25, {2-[methyl({[1-(5-{2-[3-(trifluoromethyl)-1H-1,2,4-triazol-5-yl]imidazo[1,2-a]pyrimidin-3-yl}-1H-imidazol-1-yl)ethoxy]carbonyl})amino]pyridin-3-yl}methyl 2-(methylamino)acetate, hydrochloride salt], the IC50 was 25.1 nM on human CGAS (157-522) and 316 nM in the data set with CGAS. In addition, the solubility at 4 h in data set [1] is more than 1000 µg/mL.
In the case of `Fc1cnc2nc(-c3nc(C(F)(F)F)n[nH]3)c(-c3cnc[nH]3)n2c1` [Example 2, 5-[6-fluoro-3-(1H-imidazol-5-yl)imidazo[1,2-a]pyrimidin-2-yl]-3-(trifluoromethyl)-1H-1,2,4-triazole], the IC50 at human CGAS (157-522) is 3.98 nM; in the data set on CGAS, 316 nM; in the data set with cGAS pathway, 251 nM. Besides, in data set [1], the solubility at 4 h is 5 µg/mL (≈ 14.8 µM).
In the case of `Cn1c(-c2nnc(C(F)(F)F)[nH]2)c(-n2ccnc2)c2ccc(Cl)c(Cl)c21` [WO 2022/137085 Example 109], in the data set with cGAS pathway, the IC50 was more than 31600 nM and the “hWB pXC50” value was <4.5, <4.5.
Regarding `O=C(CCCOP(=O)(O)O)OCn1cnc(-c2c(-c3nc(C(F)(F)F)n[nH]3)nc3ncccn23)c1` [Example 29, {4-oxo-4-[(4-{2-[3-(trifluoromethyl)-1H-1,2,4-triazol-5-yl]imidazo[1,2-a]pyrimidin-3-yl}-1H-imidazol-1-yl)methoxy]butoxy}phosphonic acid, trifluoroacetic acid salt], the IC50 against human CGAS (157-522) was 31.6 nM; with CGAS it was 316 nM. Also, the solubility at 4 h in data set [1] is more than 1000 µg/mL.
`FC(F)(F)c1n[nH]c(-c2nc3ncccn3c2-c2c[nH]cn2)n1` [Example 1, 5-[3-(1H-imidazol-4-yl)imidazo[1,2-a]pyrimidin-2-yl]-3-(trifluoromethyl)-1H-1,2,4-triazole] gave a solubility at 4 h in data set [1] of 4 µg/mL (≈ 12.5 µM). Further, in the data set on CGAS, the IC50 is 158 nM.
As for `CNCCOC(=O)OCn1cnc(-c2c(-c3nc(C(F)(F)F)nn3COC(=O)OCCNC)nc3ncccn23)c1` [Example 27, [4-(2-{1-[({[2-(methylamino)ethoxy]carbonyl}oxy)methyl]-3-(trifluoromethyl)-1H-1,2,4-triazol-5-yl}imidazo[1,2-a]pyrimidin-3-yl)-1H-imidazol-1-yl]methyl 2-(methylamino)ethyl carbonate, 2 trifluoroacetic acid salt], the solubility at 4 h in data set [1] was 298 µg/mL. Further, the IC50 with CGAS is 158 nM.
As to `FC(F)(F)c1nnc(-c2[nH]c3c(Cl)c(Cl)ccc3c2-c2cn[nH]c2)[nH]1` [WO 2022/137085 Example 11], in the data set on cGAS pathway, the IC50 is more than 31600 nM and the “hWB pXC50” value is listed as 4.6.
Compound `COc1nc2c(-n3ccnc3)c(-c3nnc(C(F)(F)F)[nH]3)[nH]c2cc1Cl` gave an IC50 against human CGAS (157-522) of 63.1 nM. For the same compound, the “hWB pXC50” value in the data set with cGAS pathway was < 4.5 and 5.0.
Regarding `O=C(CCCOP(=O)(O)O)OCn1cnc(-c2c(-c3nc(C(F)(F)F)nn3COC(=O)CCCOP(=O)(O)O)nc3ncccn23)c1` [Example 30, {4-oxo-4-[(5-{3-[1-({[4-(phosphonooxy)butanoyl]oxy}methyl)-1H-imidazol-4-yl]imidazo[1,2-a]pyrimidin-2-yl}-3-(trifluoromethyl)-1H-1,2,4-triazol-1-yl)methoxy]butoxy}phosphonic acid, trifluoroacetic acid salt], the IC50 is 316 nM against human CGAS (157-522) and 1260 nM with CGAS.
On the same counts, the results for `COCc1cnc2nc(-c3nc(C(F)F)n[nH]3)c(-c3cnc[nH]3)n2c1` [Example 86, 3-(difluoromethyl)-5-[3-(1H-imidazol-5-yl)-6-(methoxymethyl)imidazo[1,2-a]pyrimidin-2-yl]-1H-1,2,4-triazole] are 3.98 nM and 50.1 nM.
